# What was measured:
# Assay in all cases: radiometric filter-binding kinase assay, Kinase HotSpot
# Settings in all cases: compound 0.5 µM; ATP 10 µM
# ACVR1 (human) = ACVR1 (human) (UniProt Q04771)
# AKT3 (human) = AKT3 (human) (UniProt Q9Y243)
# BMX (human) = BMX (human) (UniProt P51813)
# CAMK4 (human) = CAMK4 (human) (UniProt Q16566)
# CDK5 CDK5R1 p25 (human) = CDK5 CDK5R1 p25 (human) (UniProt Q00535+Q15078)
# CLK4 (human) = CLK4 (human) (UniProt Q9HAZ1)
# CSF1R (human) = CSF1R (human) (UniProt P07333)
# CSF1R (human), sequence (P07333 whole entry, looked up): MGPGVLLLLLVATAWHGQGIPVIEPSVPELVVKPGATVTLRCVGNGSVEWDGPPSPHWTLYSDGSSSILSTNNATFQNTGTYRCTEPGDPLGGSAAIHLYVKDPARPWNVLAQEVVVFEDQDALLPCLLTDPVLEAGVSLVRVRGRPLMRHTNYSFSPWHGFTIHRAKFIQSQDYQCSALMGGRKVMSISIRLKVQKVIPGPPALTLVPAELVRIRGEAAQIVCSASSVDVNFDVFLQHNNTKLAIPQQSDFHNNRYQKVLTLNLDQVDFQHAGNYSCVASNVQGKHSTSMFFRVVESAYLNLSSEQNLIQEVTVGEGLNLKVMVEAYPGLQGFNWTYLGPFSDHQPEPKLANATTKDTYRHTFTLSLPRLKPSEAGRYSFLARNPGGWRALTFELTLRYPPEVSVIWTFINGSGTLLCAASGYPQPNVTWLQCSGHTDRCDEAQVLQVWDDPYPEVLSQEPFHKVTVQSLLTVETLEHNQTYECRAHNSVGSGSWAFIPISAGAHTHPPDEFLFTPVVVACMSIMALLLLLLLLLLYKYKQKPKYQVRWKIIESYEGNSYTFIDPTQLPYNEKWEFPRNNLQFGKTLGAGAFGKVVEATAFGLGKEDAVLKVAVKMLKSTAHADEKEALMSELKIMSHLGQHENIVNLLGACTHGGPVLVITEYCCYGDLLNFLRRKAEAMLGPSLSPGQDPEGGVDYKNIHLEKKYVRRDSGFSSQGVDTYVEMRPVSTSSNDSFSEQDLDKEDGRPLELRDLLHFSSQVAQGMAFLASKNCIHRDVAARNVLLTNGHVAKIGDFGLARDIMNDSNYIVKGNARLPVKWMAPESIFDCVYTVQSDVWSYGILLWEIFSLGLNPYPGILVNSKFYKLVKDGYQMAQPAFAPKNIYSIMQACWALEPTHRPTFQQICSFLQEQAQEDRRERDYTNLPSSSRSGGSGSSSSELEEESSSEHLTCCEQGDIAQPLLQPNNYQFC
# CSNK1E (human) = CSNK1E (human) (UniProt P49674)
# ERBB2 (human) = ERBB2 (human) (UniProt P04626)
# ERBB4 (human) = ERBB4 (human) (UniProt Q15303)
# FGFR2 (human) = FGFR2 (human) (UniProt P21802)
# FGFR2 (human), sequence (P21802 whole entry, looked up): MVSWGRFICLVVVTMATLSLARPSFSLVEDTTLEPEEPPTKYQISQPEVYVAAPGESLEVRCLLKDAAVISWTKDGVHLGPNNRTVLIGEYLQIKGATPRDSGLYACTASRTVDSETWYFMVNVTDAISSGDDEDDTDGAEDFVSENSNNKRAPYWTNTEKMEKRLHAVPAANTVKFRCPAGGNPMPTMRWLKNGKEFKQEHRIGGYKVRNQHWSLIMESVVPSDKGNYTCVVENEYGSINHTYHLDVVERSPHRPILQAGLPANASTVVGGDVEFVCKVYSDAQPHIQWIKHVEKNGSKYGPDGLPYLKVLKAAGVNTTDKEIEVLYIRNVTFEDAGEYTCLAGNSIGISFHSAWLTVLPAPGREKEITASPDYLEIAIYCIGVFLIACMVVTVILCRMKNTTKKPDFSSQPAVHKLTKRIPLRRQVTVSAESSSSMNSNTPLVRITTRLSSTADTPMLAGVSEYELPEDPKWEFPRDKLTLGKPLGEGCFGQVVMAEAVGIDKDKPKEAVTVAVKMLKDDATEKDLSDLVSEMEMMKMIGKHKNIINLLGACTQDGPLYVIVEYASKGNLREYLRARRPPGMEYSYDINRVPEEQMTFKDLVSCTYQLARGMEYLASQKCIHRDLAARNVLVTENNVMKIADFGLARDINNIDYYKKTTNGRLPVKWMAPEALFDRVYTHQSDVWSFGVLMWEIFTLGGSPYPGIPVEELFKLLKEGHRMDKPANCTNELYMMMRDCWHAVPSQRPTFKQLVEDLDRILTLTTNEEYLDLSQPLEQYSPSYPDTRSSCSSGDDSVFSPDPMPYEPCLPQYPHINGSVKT
# FGFR3 (human) = FGFR3 (human) (UniProt P22607)
# FGFR4 (human) = FGFR4 (human) (UniProt P22455)
# JAK3 JH1 JH2 (human) = JAK3 JH1 JH2 (human) (UniProt P52333)
# LTK (human) = LTK (human) (UniProt P29376)
# MAP3K10 (human) = MAP3K10 (human) (UniProt Q02779)
# MAP4K4 (human) = MAP4K4 (human) (UniProt O95819)
# MAP4K4 (human), sequence (O95819 whole entry, looked up): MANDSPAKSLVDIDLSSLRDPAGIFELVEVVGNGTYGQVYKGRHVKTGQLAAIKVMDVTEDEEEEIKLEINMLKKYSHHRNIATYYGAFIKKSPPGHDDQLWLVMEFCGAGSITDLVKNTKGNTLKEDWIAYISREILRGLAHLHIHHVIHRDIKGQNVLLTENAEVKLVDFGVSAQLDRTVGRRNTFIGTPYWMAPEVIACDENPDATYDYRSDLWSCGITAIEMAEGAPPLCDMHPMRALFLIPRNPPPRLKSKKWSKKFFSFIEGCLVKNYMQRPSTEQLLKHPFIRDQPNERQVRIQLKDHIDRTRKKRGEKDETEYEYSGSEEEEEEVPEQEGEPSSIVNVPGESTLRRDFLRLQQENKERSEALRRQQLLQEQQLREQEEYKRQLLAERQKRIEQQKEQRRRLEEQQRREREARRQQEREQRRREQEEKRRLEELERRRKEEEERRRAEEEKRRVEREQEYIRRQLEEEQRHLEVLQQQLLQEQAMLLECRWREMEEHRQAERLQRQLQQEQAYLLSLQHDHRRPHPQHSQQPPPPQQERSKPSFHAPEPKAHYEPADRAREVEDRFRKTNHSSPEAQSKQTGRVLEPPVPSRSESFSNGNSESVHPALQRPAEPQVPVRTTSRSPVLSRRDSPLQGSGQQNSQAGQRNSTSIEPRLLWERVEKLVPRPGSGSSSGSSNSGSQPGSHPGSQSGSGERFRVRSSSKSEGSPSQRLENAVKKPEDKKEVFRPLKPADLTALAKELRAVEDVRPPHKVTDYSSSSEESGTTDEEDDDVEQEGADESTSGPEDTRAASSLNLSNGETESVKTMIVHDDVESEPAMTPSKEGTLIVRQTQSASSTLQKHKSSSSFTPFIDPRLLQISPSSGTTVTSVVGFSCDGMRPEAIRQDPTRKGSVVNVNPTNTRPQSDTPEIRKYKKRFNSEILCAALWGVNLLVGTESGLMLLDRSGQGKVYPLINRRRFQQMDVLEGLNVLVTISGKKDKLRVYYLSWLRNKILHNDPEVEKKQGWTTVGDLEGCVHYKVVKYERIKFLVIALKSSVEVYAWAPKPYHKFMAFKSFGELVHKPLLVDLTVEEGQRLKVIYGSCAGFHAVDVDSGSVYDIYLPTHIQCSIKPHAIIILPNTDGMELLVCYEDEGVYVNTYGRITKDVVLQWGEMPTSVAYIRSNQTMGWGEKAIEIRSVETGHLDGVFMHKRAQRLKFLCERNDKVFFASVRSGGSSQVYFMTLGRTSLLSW
# MAPK12 (human) = MAPK12 (human) (UniProt P53778)
# MAPK14 (human) = MAPK14 (human) (UniProt Q16539)
# MAPK3 (human) = MAPK3 (human) (UniProt P27361)
# MAPKAPK5 (human) = MAPKAPK5 (human) (UniProt Q8IW41)
# MET (human) = MET (human) (UniProt P08581)
# MINK1 (human) = MINK1 (human) (UniProt Q8N4C8)
# MKNK2 (human) = MKNK2 (human) (UniProt Q9HBH9)
# MKNK2 (human), sequence (Q9HBH9 whole entry, looked up): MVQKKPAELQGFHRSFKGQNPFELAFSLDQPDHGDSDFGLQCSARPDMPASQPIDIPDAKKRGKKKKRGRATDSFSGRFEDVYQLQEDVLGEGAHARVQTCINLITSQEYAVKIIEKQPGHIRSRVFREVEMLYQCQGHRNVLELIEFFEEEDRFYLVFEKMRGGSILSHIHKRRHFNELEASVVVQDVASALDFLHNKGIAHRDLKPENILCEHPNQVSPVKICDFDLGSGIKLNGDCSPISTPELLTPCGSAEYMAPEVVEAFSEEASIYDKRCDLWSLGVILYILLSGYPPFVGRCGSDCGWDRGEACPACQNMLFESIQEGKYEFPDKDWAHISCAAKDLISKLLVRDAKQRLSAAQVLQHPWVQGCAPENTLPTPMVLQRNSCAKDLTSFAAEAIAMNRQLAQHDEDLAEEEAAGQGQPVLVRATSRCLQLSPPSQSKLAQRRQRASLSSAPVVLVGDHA
# NEK2 (human) = NEK2 (human) (UniProt P51955)
# PASK (human) = PASK (human) (UniProt Q96RG2)
# PLK1 (human) = PLK1 (human) (UniProt P53350)
# PRKCD (human) = PRKCD (human) (UniProt Q05655)
# PTK2 (human) = PTK2 (human) (UniProt Q05397)
# PTK6 (human) = PTK6 (human) (UniProt Q13882)
# RAF1 (human) = RAF1 (human) (UniProt P04049)
# ROCK1 (human) = ROCK1 (human) (UniProt Q13464)
# RPS6KA2 KD1 KD2 (human) = RPS6KA2 KD1 KD2 (human) (UniProt Q15349)
# RPS6KB2 (human) = RPS6KB2 (human) (UniProt Q9UBS0)
# SGK2 (human) = SGK2 (human) (UniProt Q9HBY8)
# SGK2 (human), sequence (Q9HBY8 whole entry, looked up): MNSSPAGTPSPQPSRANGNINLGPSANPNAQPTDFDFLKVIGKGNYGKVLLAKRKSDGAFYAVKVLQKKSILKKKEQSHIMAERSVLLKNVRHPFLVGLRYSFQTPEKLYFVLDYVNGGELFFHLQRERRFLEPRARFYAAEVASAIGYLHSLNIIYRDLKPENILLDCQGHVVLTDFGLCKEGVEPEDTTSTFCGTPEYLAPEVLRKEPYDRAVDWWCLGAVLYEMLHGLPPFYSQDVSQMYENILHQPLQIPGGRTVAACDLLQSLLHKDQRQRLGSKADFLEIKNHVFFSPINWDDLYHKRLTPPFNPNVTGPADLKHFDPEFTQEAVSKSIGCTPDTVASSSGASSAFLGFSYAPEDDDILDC
# SRMS (human) = SRMS (human) (UniProt Q9H3Y6)
# STK10 (human) = STK10 (human) (UniProt O94804)
# STK11 (human) = STK11 (human) (UniProt Q15831)
# STK16 (human) = STK16 (human) (UniProt O75716)
# TAOK1 (human) = TAOK1 (human) (UniProt Q7L7X3)
# TAOK1 (human), sequence (Q7L7X3 whole entry, looked up): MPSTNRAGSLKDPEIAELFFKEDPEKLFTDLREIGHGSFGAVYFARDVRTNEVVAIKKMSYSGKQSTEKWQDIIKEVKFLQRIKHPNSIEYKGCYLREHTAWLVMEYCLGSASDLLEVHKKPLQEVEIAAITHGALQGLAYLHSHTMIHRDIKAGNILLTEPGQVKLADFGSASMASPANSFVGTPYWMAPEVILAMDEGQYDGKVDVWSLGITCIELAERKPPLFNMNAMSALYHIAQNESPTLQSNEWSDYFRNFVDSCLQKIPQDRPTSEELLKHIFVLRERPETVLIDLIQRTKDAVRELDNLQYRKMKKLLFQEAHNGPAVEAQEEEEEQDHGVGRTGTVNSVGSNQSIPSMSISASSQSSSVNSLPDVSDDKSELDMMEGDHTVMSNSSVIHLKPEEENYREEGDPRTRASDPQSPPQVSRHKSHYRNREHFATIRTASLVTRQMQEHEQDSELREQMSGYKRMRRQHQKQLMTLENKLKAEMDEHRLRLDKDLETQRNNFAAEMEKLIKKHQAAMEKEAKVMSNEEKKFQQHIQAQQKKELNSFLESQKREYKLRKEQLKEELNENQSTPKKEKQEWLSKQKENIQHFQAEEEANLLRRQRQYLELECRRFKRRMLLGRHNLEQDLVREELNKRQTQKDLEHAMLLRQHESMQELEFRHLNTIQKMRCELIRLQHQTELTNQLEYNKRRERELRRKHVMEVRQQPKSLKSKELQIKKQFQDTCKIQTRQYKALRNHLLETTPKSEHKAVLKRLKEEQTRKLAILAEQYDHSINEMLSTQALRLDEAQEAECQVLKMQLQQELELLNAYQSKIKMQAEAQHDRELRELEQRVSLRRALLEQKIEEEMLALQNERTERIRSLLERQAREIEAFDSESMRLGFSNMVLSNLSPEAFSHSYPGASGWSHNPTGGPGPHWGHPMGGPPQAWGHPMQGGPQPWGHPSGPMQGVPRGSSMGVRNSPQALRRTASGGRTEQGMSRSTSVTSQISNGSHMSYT
# TNK2 (human) = TNK2 (human) (UniProt Q07912)
# TYRO3 (human) = TYRO3 (human) (UniProt Q06418)
structure (smiles),measurement,setting,value
Cn1cc(/C=C2\C(=O)Nc3ccc(S(N)(=O)=O)cc32)c2ccccc21,residual activity,ACVR1 (human),111%
same,residual activity,AKT3 (human),97.4%
same,residual activity,BMX (human),77%
same,residual activity,CAMK4 (human),96.4%
same,residual activity,CDK5 CDK5R1 p25 (human),58%
same,residual activity,CLK4 (human),42.6%
same,residual activity,CSF1R (human),82.5%
same,residual activity,CSNK1E (human),89%
same,residual activity,ERBB2 (human),120%
same,residual activity,ERBB4 (human),81.3%
same,residual activity,FGFR2 (human),50.5%
same,residual activity,FGFR3 (human),33.8%
same,residual activity,FGFR4 (human),74.1%
same,residual activity,JAK3 JH1 JH2 (human),43.7%
same,residual activity,LTK (human),54.5%
same,residual activity,MAP3K10 (human),95.9%
same,residual activity,MAP4K4 (human),22.5%
same,residual activity,MAPK12 (human),101%
same,residual activity,MAPK14 (human),123%
same,residual activity,MAPK3 (human),109%
same,residual activity,MAPKAPK5 (human),88.3%
same,residual activity,MET (human),84.2%
same,residual activity,MINK1 (human),53.7%
same,residual activity,MKNK2 (human),71.1%
same,residual activity,NEK2 (human),89.1%
same,residual activity,PASK (human),84.8%
same,residual activity,PLK1 (human),92.1%
same,residual activity,PRKCD (human),91.3%
same,residual activity,PTK2 (human),94.1%
same,residual activity,PTK6 (human),80.2%
same,residual activity,RAF1 (human),102%
same,residual activity,ROCK1 (human),63.8%
same,residual activity,RPS6KA2 KD1 KD2 (human),9.26%
same,residual activity,RPS6KB2 (human),94.6%
same,residual activity,SGK2 (human),80.7%
same,residual activity,SRMS (human),99.8%
same,residual activity,STK10 (human),17%
same,residual activity,STK11 (human),68.2%
same,residual activity,STK16 (human),78.7%
same,residual activity,TAOK1 (human),98.3%
same,residual activity,TNK2 (human),72.3%
same,residual activity,TYRO3 (human),90.5%
COc1cccc(-c2cc(=O)c3ccccc3o2)c1N,residual activity,ACVR1 (human),92.7%
same,residual activity,AKT3 (human),101%
same,residual activity,BMX (human),103%
same,residual activity,CAMK4 (human),104%
same,residual activity,CDK5 CDK5R1 p25 (human),87.5%
same,residual activity,CLK4 (human),86.3%
same,residual activity,CSF1R (human),101%
same,residual activity,CSNK1E (human),97.5%
same,residual activity,ERBB2 (human),106%
same,residual activity,ERBB4 (human),94.7%
same,residual activity,FGFR2 (human),97.8%
same,residual activity,FGFR3 (human),91%
same,residual activity,FGFR4 (human),104%
same,residual activity,JAK3 JH1 JH2 (human),96.9%
same,residual activity,LTK (human),75.4%
same,residual activity,MAP3K10 (human),90%
same,residual activity,MAP4K4 (human),97.2%
same,residual activity,MAPK12 (human),95.5%
same,residual activity,MAPK14 (human),76.2%
same,residual activity,MAPK3 (human),102%
same,residual activity,MAPKAPK5 (human),122%
same,residual activity,MET (human),112%
same,residual activity,MINK1 (human),96.2%
same,residual activity,MKNK2 (human),108%
same,residual activity,NEK2 (human),86.1%
same,residual activity,PASK (human),86.1%
same,residual activity,PLK1 (human),88.2%
same,residual activity,PRKCD (human),106%
same,residual activity,PTK2 (human),98.2%
same,residual activity,PTK6 (human),92.6%
same,residual activity,RAF1 (human),91.5%
same,residual activity,ROCK1 (human),95.6%
same,residual activity,RPS6KA2 KD1 KD2 (human),96.4%
same,residual activity,RPS6KB2 (human),84.5%
same,residual activity,SGK2 (human),95.9%
same,residual activity,SRMS (human),104%
same,residual activity,STK10 (human),90.4%
same,residual activity,STK11 (human),101%
same,residual activity,STK16 (human),95.4%
same,residual activity,TAOK1 (human),77.9%
same,residual activity,TNK2 (human),79.9%
same,residual activity,TYRO3 (human),96.9%
